Test results: patent US12351581B2, “Compounds for FGFR inhibition” (Cogent Biosciences, Inc., priority 2023, dated 2025)
Read-outs that look alike come from different tables or passages of the source.

Key:
[1] = biological target: T1, FGFR2 (Homo sapiens, UniProt P21802); assay: FGFR wild type enzyme assay (HTRF KinEASE-TK); type: biochemical; conditions: ATP 2 uM
T1 construct: biochemical assays using purified intracellular domains of the respective isoforms; purchased Carna Bioscience 08-134
Description: (§1) Activity against FGFR wild type and mutant enzymes were determined in biochemical assays using purified intracellular domains of the respective isoforms using HTRF KinEASE-TK assay technology from CisBio, now PerkinElmer. (Catalogue number 62TK0PEC). Briefly test compounds were tested in 11 point 1:3 serial dilutions, typical final concentration range from 10,000 nM to 0.17 nM. Test compounds were dissolved in DMSO and added to assay plates using acoustic transfer. Enzyme was pre-incubated with test compound for 30 minutes and the assay was initiated by addition of ATP and TK-peptide substrate. After 60 minutes at room temperature the reaction was quenched with detection reagent and incubated for an additional 60 minutes at room temperature. The plates were read using a multimode reader and the emission ratio of 665 nm to 615 nm was determined. This ratio was converted to percent of control (POC). [1-(high control-sample signal)/(high control-low control)]*100. Wells without compound were used to determine high control values and wells without enzyme were used to determine low control values. The POC values were fit using a four-parameter logistic model and the value where the fit curve was equal to 50 POC was reported as the IC50 using the Signals Vitro Vivo software package (PerkinElmer). Final assay conditions were: 50 mM HEPES pH7.5, 10 mM MgCl2, 1 mM EDTA, 0.01% Brij-35, 2 mM MnCl2, 1 mM DTT, and 0.5 uM TK-peptide. The enzyme source, catalogue number, final enzyme concentration, and final ATP concentration can be found in the tables 1-2 below.

[2] = biological target: T2, FGFR2 V564F (Homo sapiens, UniProt P21802, V564F); assay: FGFR mutant enzyme assay (HTRF KinEASE-TK); type: biochemical; conditions: ATP 1.5 uM
T2 construct: biochemical assays using purified intracellular domains of the respective isoforms; purchased SignalChem Biotech F05-12FG
T2 sequence (P21802 399-821 V564F limits assumed): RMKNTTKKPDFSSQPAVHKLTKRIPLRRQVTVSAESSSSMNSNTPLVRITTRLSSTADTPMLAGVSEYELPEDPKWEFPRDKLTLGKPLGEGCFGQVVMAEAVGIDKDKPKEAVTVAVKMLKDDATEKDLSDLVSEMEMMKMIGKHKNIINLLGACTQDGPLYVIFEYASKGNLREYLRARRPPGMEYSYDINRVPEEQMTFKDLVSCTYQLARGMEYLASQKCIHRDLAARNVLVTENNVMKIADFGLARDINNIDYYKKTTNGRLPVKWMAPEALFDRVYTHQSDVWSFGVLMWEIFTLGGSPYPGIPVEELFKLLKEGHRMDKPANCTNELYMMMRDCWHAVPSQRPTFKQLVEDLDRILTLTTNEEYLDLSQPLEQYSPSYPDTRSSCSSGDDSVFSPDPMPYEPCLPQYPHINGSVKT
Description: as §1

[3] = biological target: T3, FGFR2 V564I (Homo sapiens, UniProt P21802, V564I); assay: FGFR mutant enzyme assay (HTRF KinEASE-TK); type: biochemical; conditions: ATP 0.4 uM
T3 construct: biochemical assays using purified intracellular domains of the respective isoforms; purchased Carna Bioscience 08-546
T3 sequence (P21802 399-821 V564I limits assumed): as the sequence (P21802 399-821 V564F limits assumed) above, with F166I counted along it
Description: as §1

[4] = biological target: T4, FGFR2 N549H (Homo sapiens, UniProt P21802, N549H); assay: FGFR mutant enzyme assay (HTRF KinEASE-TK); type: biochemical; conditions: ATP 0.9 uM
T4 construct: biochemical assays using purified intracellular domains of the respective isoforms; purchased Carna Bioscience 08-532
T4 sequence (P21802 399-821 N549H limits assumed): as the sequence (P21802 399-821 V564F limits assumed) above, with N151H, F166V counted along it
Description: as §1

[5] = biological target: FGFR2-WT (Homo sapiens, UniProt P21802); assay: Phosphorylated FGFR2-WT (pFGFR2-WT) cell assay, KATOIII cells; type: cell-based; conditions: 1 hour incubation, phospho FGFR2 HTRF
FGFR2-WT, sequence (P21802 430-767 limits assumed): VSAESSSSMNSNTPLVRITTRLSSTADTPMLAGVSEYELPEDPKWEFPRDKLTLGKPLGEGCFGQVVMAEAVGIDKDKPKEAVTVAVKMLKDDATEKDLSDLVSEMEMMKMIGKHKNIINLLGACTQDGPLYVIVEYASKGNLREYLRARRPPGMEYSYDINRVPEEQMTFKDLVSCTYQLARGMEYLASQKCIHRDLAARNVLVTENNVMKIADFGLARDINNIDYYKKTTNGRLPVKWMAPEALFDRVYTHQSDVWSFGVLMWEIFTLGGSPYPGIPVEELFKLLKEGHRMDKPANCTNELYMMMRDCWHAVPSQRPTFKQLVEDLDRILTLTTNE
Description: KATOIII cells were grown in the appropriate growth medium, IMDM supplemented with 20% fetal bovine serum. Cells were seeded into a 384-well at 1×10^5 cells/25 μL/well. Cells were treated with compound using three-fold serial dilutions at final concentrations ranging from 10 μM to 0.5 nM. Compound was incubated on cells for 1 hour at 37° C., 5% CO2.
Following the 1-hour incubation with compounds, cell lysates were prepared and phospho FGFR2 was measured using the HTRF Phospho-FGFR2 (TYR653/654) Detection Kits (CisBio, cat #64FGFR2Y6PEG). 8 μL of cell lysis buffer (4×) supplied with 1× Phospho and Total protein blocking reagent (CisBio, cat #64FGFR2Y6PEG, CisBio, cat #64KB1AAC) was then added to the wells. Cells were incubated with lysis buffer for 40 minutes at 4° C. under shaking conditions. Plates were centrifuged at 1500 rpm for 3 min and then 16 μL of cell lysate was transferred from the cell-culture plate to a small volume detection plate with the added premixed antibody solutions (4 μL) (CisBio, cat #64FGFR2Y6PEG). Plates were centrifuged at 1000 rpm for 1 min then incubated at 25° C. for 120 min, then overnight at 4° C. Plates were read on the En Vision multimode plate reader via HTRF dual wavelength detection. One hundred percent of control (POC) was determined using DMSO treated samples, and 0 POC was determined using the top concentration of a control compound. A 4-parameter logistic curve was fit to the POC values as a function of compound concentration to determine the IC50 value.

[6] = compound table after the examples, read-out: Enz FGFR2

T1 sequence (P21802 399-821 limits assumed): as the sequence (P21802 399-821 V564F limits assumed) above, with F166V counted along it

Row | SMILES | IC50 ([1]; Table 3, read-out: FGFR2 Enz) | IC50 [1, 6] | IC50 [2] | IC50 [3] | IC50 [4] | IC50 [5]
1 | Cc1c(-c2cc(O[C@H](C)c3ccc(F)cn3)c3c(C#N)cnn3c2)cnn1[C@H]1CCC[C@@H](O)C1 [Compound 71, 4-((R)-1-(5-fluoropyridin-2-yl)ethoxy)-6-(1-((1S,3R)-3-hydroxycyclohexyl)-5-methyl-1H-pyrazol-4-yl)pyrazolo[1,5-a]pyridine-3-carbonitrile] | 1 nM | 1 nM | 2 nM | 3 nM | 1 nM | 4.5 nM
2 | C[C@@H](Oc1cc(-c2cnn([C@H]3CC[C@H](O)CC3)c2N)cn2ncc(C#N)c12)c1ccc(F)cn1 [Compound 32, 6-(5-amino-1-((1r,4R)-4-hydroxycyclohexyl)-1H-pyrazol-4-yl)-4-((R)-1-(5-fluoropyridin-2-yl)ethoxy)pyrazolo[1,5-a]pyridine-3-carbonitrile] | 0.4 nM | 0.4 nM | 1 nM | 1 nM | 0.3 nM | 2.5 nM
3 | Cc1c(-c2cc(O[C@H](c3ccc(F)cn3)C(F)(F)F)c3c(C#N)cnn3c2)cnn1[C@H]1CC[C@H](O)CC1 [Compound 70, 6-(1-((1r,4R)-4-hydroxycyclohexyl)-5-methyl-1H-pyrazol-4-yl)-4-((R)-2,2,2-trifluoro-1-(5-fluoropyridin-2-yl)ethoxy)pyrazolo[1,5-a]pyridine-3-carbonitrile] | 110 nM | 110 nM | 219 nM | 420 nM | 160 nM | 790 nM
4 | Cc1c(-c2cc(O[C@H](C)c3cccnc3)c3c(C#N)cnn3c2)cnn1[C@H]1CC[C@H](O)CC1 [Compound 54, 6-(1-((1r,4R)-4-hydroxycyclohexyl)-5-methyl-1H-pyrazol-4-yl)-4-((R)-1-(pyridin-3-yl)ethoxy)pyrazolo[1,5-a]pyridine-3-carbonitrile] | 0.4 nM | 0.4 nM | 1 nM | 1 nM | 0.5 nM | 12 nM
5 | CC[C@@H](Oc1cc(-c2cnn([C@H]3CC[C@H](O)CC3)c2C)cn2ncc(C#N)c12)c1ccc(F)cn1 [Compound 60, 4-((R)-1-(5-fluoropyridin-2-yl)propoxy)-6-(1-((1r,4R)-4-hydroxycyclohexyl)-5-methyl-1H-pyrazol-4-yl)pyrazolo[1,5-a]pyridine-3-carbonitrile] | 0.4 nM | 0.4 nM | 1.5 nM | 2 nM | 0.5 nM | 3.5 nM
6 | C[C@@H](Oc1cc(-c2ccc(N3CC[C@@H](O)[C@H](O)C3)nc2)cn2ncc(C#N)c12)c1ccc(F)cn1 [Compound 64, 6-(6-((3R,4R)-3,4-dihydroxypiperidin-1-yl)pyridin-3-yl)-4-((R)-1-(5-fluoropyridin-2-yl)ethoxy)pyrazolo[1,5-a]pyridine-3-carbonitrile] | 0.3 nM | – | 0.6 nM | 0.7 nM | 0.2 nM | 4 nM
7 | Cc1c(-c2cc(O[C@H](C)c3ccc(F)cn3)c3c(C#N)cnn3c2)cnn1[C@H]1CC[C@H](O)CC1 [Compound 1, 4-[(1R)-1-(5-fluoro-2-pyridyl)ethoxy]-6-[1-(4-hydroxycyclohexyl)-5-methyl-pyrazol-4-yl]pyrazolo[1,5-a]pyridine-3-carbonitrile] | 0.3 nM | 0.3 nM | 1 nM | 1.4 nM | 0.4 nM | 3.4 nM
8 | C[C@H](Oc1cc(-c2cnn(C3CCNCC3)c2)cn2ncc(C#N)c12)c1ccccn1 [Compound 3, (S)-6-(1-(piperidin-4-yl)-1H-pyrazol-4-yl)-4-(1-(pyridin-2-yl)ethoxy)pyrazolo[1,5-a]pyridine-3-carbonitrile] | 21 nM | 21 nM | – | – | – | 128 nM
